Laboratory results: ChEMBL document CHEMBL1150281, “Oleanane-type triterpenes from the flowers and roots of Saussurea muliensis” (2008)

Key:
Format in all cases: functional
Staphylococcus aureus = assay: Antimicrobial activity against Staphylococcus aureus ATCC 25923
Escherichia coli = assay: Antimicrobial activity against Escherichia coli ATCC 25922
Bacillus cereus = assay: Antimicrobial activity against Bacillus cereus
Candida albicans = assay: Antimicrobial activity against Candida albicans

Measured: MIC

CC(=O)O[C@@H]1CC[C@]2(C)[C@H]3CC=C4[C@@H]5C[C@](O)(CO)[C@H](O)[C@H](OC(C)=O)[C@]5(C)CC[C@@]4(C)[C@]3(C)CC[C@H]2C1(C)C
> 50 µg/mL: all assays above

CC1(C)[C@H](OC(=O)/C=C/c2ccc(O)c(O)c2)CC[C@]2(C)[C@H]3CC=C4[C@@H]5C[C@@](C)(C(=O)O)CC[C@]5(C)CC[C@@]4(C)[C@]3(C)CC[C@@H]12
> 50 µg/mL: all assays above

CCCCCCCCCCCCCCCC(=O)OC[C@@]1(O)C[C@H]2C3=CC[C@@H]4[C@@]5(C)CC[C@@H](OC(C)=O)C(C)(C)[C@@H]5CC[C@@]4(C)[C@]3(C)CC[C@@]2(C)[C@@H](OC(C)=O)[C@H]1O
> 50 µg/mL: all assays above

CC1(C)[C@@H](O)CC[C@]2(C)[C@H]3CC=C4[C@@H]5C[C@@](C)(C(=O)O)C[C@H](O)[C@]5(C)CC[C@@]4(C)[C@]3(C)CC[C@@H]12
> 50 µg/mL: all assays above

CC1(C)[C@H](OC(=O)/C=C/c2ccc(O)cc2)CC[C@]2(C)[C@H]3CC=C4[C@@H]5C[C@@](C)(C(=O)O)CC[C@]5(C)CC[C@@]4(C)[C@]3(C)CC[C@@H]12
> 50 µg/mL: all assays above

CO[C@]1(CO)C[C@H]2C3=CC[C@@H]4[C@@]5(C)CC[C@@H](OC(C)=O)C(C)(C)[C@@H]5CC[C@@]4(C)[C@]3(C)CC[C@@]2(C)[C@@H](OC(C)=O)[C@H]1O
> 50 µg/mL: all assays above
